Reference: PubChem BioAssay (NCI)
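1) Cells in 96-well plates. 2) Compound, 48 h, 5 concentrations. 3) Linear interpolation between surrounding doses. 4) Unreached endpoint = highest concentration. TGI marks complete inhibition of growth.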

Key:
Assay in all cases: inhibition of tumour cell growth, NCI panel, 48 h
MALME-3M melanoma = tested on: MALME-3M melanoma
SF-268 CNS = tested on: SF-268 CNS
HCC-2998 colon = tested on: HCC-2998 colon
SK-MEL-5 melanoma = tested on: SK-MEL-5 melanoma
K-562 leukemia = tested on: K-562 leukemia
M14 melanoma = tested on: M14 melanoma
OVCAR-5 ovarian = tested on: OVCAR-5 ovarian
SN12C renal = tested on: SN12C renal
SK-MEL-2 melanoma = tested on: SK-MEL-2 melanoma
786-0 renal = tested on: 786-0 renal
TK-10 renal = tested on: TK-10 renal
HL-60(TB) leukemia = tested on: HL-60(TB) leukemia
UACC-257 melanoma = tested on: UACC-257 melanoma
U251 CNS = tested on: U251 CNS
XF 498 CNS = tested on: XF 498 CNS
LXFL 529 NSCLC = tested on: LXFL 529 NSCLC
DMS 273 small cell lung = tested on: DMS 273 small cell lung
CAKI-1 renal = tested on: CAKI-1 renal
SK-OV-3 ovarian = tested on: SK-OV-3 ovarian
HOP-92 NSCLC = tested on: HOP-92 NSCLC
NCI-H522 lung = tested on: NCI-H522 lung
DLD-1 colon = tested on: DLD-1 colon
SF-539 CNS = tested on: SF-539 CNS
HOP-18 NSCLC = tested on: HOP-18 NSCLC
SNB-75 CNS = tested on: SNB-75 CNS
ACHN renal = tested on: ACHN renal
OVCAR-4 ovarian = tested on: OVCAR-4 ovarian
MOLT-4 leukemia = tested on: MOLT-4 leukemia
IGROV1 ovarian = tested on: IGROV1 ovarian
SF-295 CNS = tested on: SF-295 CNS
HOP-62 NSCLC = tested on: HOP-62 NSCLC
EKVX NSCLC = tested on: EKVX NSCLC
CCRF-CEM leukemia = tested on: CCRF-CEM leukemia
NCI-H23 lung = tested on: NCI-H23 lung
NCI-H460 lung = tested on: NCI-H460 lung
SR leukemia = tested on: SR leukemia
KM20L2 colon = tested on: KM20L2 colon
LOX IMVI melanoma = tested on: LOX IMVI melanoma
UO-31 renal = tested on: UO-31 renal
M19-MEL melanoma = tested on: M19-MEL melanoma
SNB-19 CNS = tested on: SNB-19 CNS
COLO 205 colon = tested on: COLO 205 colon
A549 NSCLC = tested on: A549 NSCLC
RXF 393 renal = tested on: RXF 393 renal
KM12 colon = tested on: KM12 colon
UACC-62 melanoma = tested on: UACC-62 melanoma
OVCAR-3 ovarian = tested on: OVCAR-3 ovarian
HCT-116 colon = tested on: HCT-116 colon
HCT-15 colon = tested on: HCT-15 colon
A498 renal = tested on: A498 renal
SW-620 colon = tested on: SW-620 colon
OVCAR-8 ovarian = tested on: OVCAR-8 ovarian
NCI-H226 lung = tested on: NCI-H226 lung
SK-MEL-28 melanoma = tested on: SK-MEL-28 melanoma
SNB-78 CNS = tested on: SNB-78 CNS
HT29 colon = tested on: HT29 colon
DMS 114 small cell lung = tested on: DMS 114 small cell lung
RPMI-8226 leukemia = tested on: RPMI-8226 leukemia
DU-145 prostate = tested on: DU-145 prostate

COc1ccc(Nc2nc3c(N)cc(C(F)(F)F)cc3nc2-c2ccccc2)cc1OC
TGI (MALME-3M melanoma): 38.5 µM
TGI (SF-268 CNS): 71.1 µM
TGI (HCC-2998 colon): 89.6 µM
TGI (SK-MEL-5 melanoma): 62.3 µM
TGI (K-562 leukemia): > 100 µM
TGI (M14 melanoma): > 100 µM
TGI (OVCAR-5 ovarian): > 100 µM
TGI (SN12C renal): 47.1 µM
TGI (SK-MEL-2 melanoma): 69.1 µM
TGI (786-0 renal): 28.9 µM
TGI (TK-10 renal): 47.3 µM
TGI (HL-60(TB) leukemia): > 100 µM
TGI (UACC-257 melanoma): 63.9 µM
TGI (U251 CNS): 42.8 µM
TGI (XF 498 CNS): 33.1 µM
TGI (LXFL 529 NSCLC): 46.4 µM
TGI (DMS 273 small cell lung): > 100 µM
TGI (CAKI-1 renal): 42.5 µM
TGI (SK-OV-3 ovarian): 28.6 µM
TGI (HOP-92 NSCLC): 46.3 µM
TGI (NCI-H522 lung): 43.9 µM
TGI (DLD-1 colon): > 100 µM
TGI (SF-539 CNS): 39.6 µM
TGI (HOP-18 NSCLC): 43.8 µM
TGI (SNB-75 CNS): 17.5 µM
TGI (ACHN renal): 27.5 µM
TGI (OVCAR-4 ovarian): 33.8 µM
TGI (MOLT-4 leukemia): > 100 µM
TGI (IGROV1 ovarian): 69.7 µM
TGI (SF-295 CNS): 44.8 µM
TGI (HOP-62 NSCLC): 57.8 µM
TGI (EKVX NSCLC): 59.7 µM
TGI (CCRF-CEM leukemia): > 100 µM
TGI (NCI-H23 lung): > 100 µM
TGI (NCI-H460 lung): > 100 µM
TGI (SR leukemia): > 100 µM
TGI (KM20L2 colon): > 100 µM
TGI (LOX IMVI melanoma): > 100 µM
TGI (UO-31 renal): 95.3 µM
TGI (M19-MEL melanoma): 60.4 µM
TGI (SNB-19 CNS): 53.8 µM
TGI (COLO 205 colon): > 100 µM
TGI (A549 NSCLC): 66.1 µM
TGI (RXF 393 renal): 50.2 µM
TGI (KM12 colon): > 100 µM
TGI (UACC-62 melanoma): 44.6 µM
TGI (OVCAR-3 ovarian): 42.9 µM
TGI (HCT-116 colon): > 100 µM
TGI (HCT-15 colon): > 100 µM
TGI (A498 renal): 70 µM
TGI (SW-620 colon): > 100 µM
TGI (OVCAR-8 ovarian): 43.2 µM
TGI (NCI-H226 lung): 57.9 µM
TGI (SK-MEL-28 melanoma): > 100 µM
TGI (SNB-78 CNS): 75.7 µM

CCOP(=O)(OCC)/C(C#N)=C\c1ccc(OC(C)=O)cc1
TGI (MALME-3M melanoma): > 100 µM
TGI (SF-268 CNS): > 100 µM
TGI (HCC-2998 colon): > 100 µM
TGI (SK-MEL-5 melanoma): > 100 µM
TGI (K-562 leukemia): > 100 µM
TGI (M14 melanoma): > 100 µM
TGI (OVCAR-5 ovarian): > 100 µM
TGI (SN12C renal): > 100 µM
TGI (SK-MEL-2 melanoma): > 100 µM
TGI (786-0 renal): > 100 µM
TGI (TK-10 renal): > 100 µM
TGI (HT29 colon): > 100 µM
TGI (HL-60(TB) leukemia): > 100 µM
TGI (UACC-257 melanoma): > 100 µM
TGI (U251 CNS): > 100 µM
TGI (XF 498 CNS): > 100 µM
TGI (LXFL 529 NSCLC): > 100 µM
TGI (DMS 114 small cell lung): > 100 µM
TGI (CAKI-1 renal): > 100 µM
TGI (SK-OV-3 ovarian): > 100 µM
TGI (HOP-92 NSCLC): > 100 µM
TGI (NCI-H522 lung): > 100 µM
TGI (DLD-1 colon): > 100 µM
TGI (SF-539 CNS): > 100 µM
TGI (HOP-18 NSCLC): > 100 µM
TGI (SNB-75 CNS): > 100 µM
TGI (ACHN renal): > 100 µM
TGI (RPMI-8226 leukemia): > 100 µM
TGI (OVCAR-4 ovarian): > 100 µM
TGI (MOLT-4 leukemia): > 100 µM
TGI (IGROV1 ovarian): > 100 µM
TGI (SF-295 CNS): > 100 µM
TGI (HOP-62 NSCLC): > 100 µM
TGI (EKVX NSCLC): > 100 µM
TGI (CCRF-CEM leukemia): > 100 µM
TGI (NCI-H23 lung): > 100 µM
TGI (NCI-H460 lung): > 100 µM
TGI (SR leukemia): > 100 µM
TGI (KM20L2 colon): > 100 µM
TGI (LOX IMVI melanoma): > 100 µM
TGI (UO-31 renal): > 100 µM
TGI (M19-MEL melanoma): > 100 µM
TGI (SNB-19 CNS): > 100 µM
TGI (COLO 205 colon): > 100 µM
TGI (A549 NSCLC): > 100 µM
TGI (RXF 393 renal): > 100 µM
TGI (KM12 colon): > 100 µM
TGI (UACC-62 melanoma): > 100 µM
TGI (OVCAR-3 ovarian): > 100 µM
TGI (HCT-116 colon): > 100 µM
TGI (HCT-15 colon): > 100 µM
TGI (A498 renal): > 100 µM
TGI (SW-620 colon): > 100 µM
TGI (OVCAR-8 ovarian): > 100 µM
TGI (DU-145 prostate): > 100 µM
TGI (NCI-H226 lung): > 100 µM
TGI (SK-MEL-28 melanoma): > 100 µM
TGI (SNB-78 CNS): > 100 µM
